Assay results: patent US20080145313A1, “Compositions and Methods for the Treatment and Prevention of Neoplastic Disorders” (Genesis Research & Development Corporation Limited, priority 2006, published 2008)
Read-outs that look alike come from different tables or passages of the source.

What was measured:
[1] = tested on: A549 cells; assay: 5FU toxicity in A549 cells after TYMS or DHFR knockdown, SYBR Green; format: cell-based, human; details: 5FU continuous for 3 days, read-out: IC50 value of 5FU following TYMS knockdown, A549
Method: (§1) HCT-116 and A549 cells were transfected as described above with 0.1, 1.0 and 10 nM of three TYMS-specific siRNAs, labeled TYMS-1, TYMS-2 and TYM-3 (SEQ ID NO: 4833-4835 (DNA), and SEQ ID NO: 5139-5141 (RNA), or 1.0 and 10 nM control siRNAs (809-ctrl; SEQ ID NO: 4805 (DNA), and SEQ ID NO: 5302 (RNA) and 81ctrl; SEQ ID NO: 4804 (DNA), and SEQ ID NO: 5301 (RNA)). HCT-116 and A549 cells were also similarly transfected with 0.1, 1.0 and 10 nM of three DHFR-specific siRNAs, labeled DHFR-1, DHFR-2 and DHFR-3 (SEQ ID NO: 4836-4838 (DNA), and SEQ ID NO: 5142-5144 (RNA)), or control siRNA (SEQ ID NO: 4805 (DNA), and SEQ ID NO: 5302 (RNA)). Twenty four hours after transfection, cells were exposed to 5FU using a serial dilution starting at 44 μM, in medium containing either 10% normal FCS or 10% dialyzed FCS as described above. 5FU treatment was continuous for 3 days, at which time cell growth was analyzed by measuring DNA content per well using the SYBR Green assay outlined above. […] This combinatorial inhibitory effect was further increased when experiments were done in medium containing dialyzed FCS (FIGS. 27D-F; FIGS. 28D-F).
(§2) FIGS. 29 and 30 show transfection with DHFR siRNA similarly led to a dose-dependent increase in growth inhibition above that caused by the drug alone (control siRNA-transfected cells) in HCT-116 cells (FIGS. 29A-C), and A549 cells (FIGS. 30A-C). This combinatorial inhibitory effect was further increased when experiments were done in medium containing dialyzed FCS (FIGS. 29D-F; FIGS. 30D-F). The changes in the IC50 value for 5FU in HCT-116 and A549 cells following TYMS knockdown by individual siRNAs are listed in Table 16 below.

[2] = tested on: HCT-116 cells; assay: 5FU toxicity in HCT-116 cells after TYMS or DHFR knockdown, SYBR Green; format: cell-based; details: 5FU continuous for 3 days, read-out: IC50 value of 5FU following TYMS knockdown, HCT-116
Method: as §1, §2

[3] = tested on: A549 cells; assay: Growth inhibition of siRNA-transfected A549 cells, SYBR Green I DNA content; format: cell-based, human; details: 10 nM siRNA; DNA content 96 hours after transfection
Method in brief: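 Growth read-out: cellular DNA quantified with SYBR Green I (485/535 nm) 96 h after transfection, cells frozen, thawed and lysed in PBS/1% Triton X-100, pH 7. Cells (A549, 5×10^3 cells/cm^2) received 10 nM siRNA by RNAiMAX; non-specific siRNA served as control; triplicate wells averaged.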

[4] = cells transfected with 0.1 nM siRNA
[5] = cells transfected with 1 nM siRNA
[6] = cells transfected with 10 nM siRNA

| Substance | IC50 [1, 4] | IC50 [1, 5] | IC50 [1, 6] | IC50 [2, 4] | IC50 [2, 5] | IC50 [2, 6] | Growth Inhibition in A549 cells [3] |
| --- | --- | --- | --- | --- | --- | --- | --- |
| SEQ ID NO: 4805: non-specific control siRNA (chain 1 GGGAAATGTCTCCTCCCATTGATTT; chain 2 GGGAAAUGUCUCCUCCCAUUGAUUU; chemistry not given here; one strand in two spellings) [reference compound] | 820 nM | 670 nM | 640 nM | 650 nM | 600 nM | 600 nM |  |
| SEQ ID NO: 4834: siRNA targeting TYMS (chain 1 TGTGGATCCCTTGATAAACCACAGC; chain 2 UGUGGAUCCCUUGAUAAACCACAGC; chemistry not given here; one strand in two spellings) | 590 nM | 210 nM | 150 nM | 410 nM |  | 100 nM | ++ (inhibits by at least 75%) |
| SEQ ID NO: 4835: siRNA targeting TYMS (chain 1 ATTCAGGTAAATATGTGCATCTCCC; chain 2 AUUCAGGUAAAUAUGUGCAUCUCCC; chemistry not given here; one strand in two spellings) | 610 nM | 130 nM | 200 nM | 320 nM | 190 nM | 110 nM | ++ (inhibits by at least 75%) |
